Source: ChEMBL document CHEMBL4000244, “Probing A-form DNA: A fluorescent aminosugar probe and dual recognition by anthraquinone-neomycin conjugates” (Bioorg Med Chem, 2017)

Key:
[1] = Binding affinity to 5'-GGGGCCCC-3' DNA hairpin assessed as change in fluorescence intensity at 1 uM after 45 mins by fluorescence quenching analysis relative to control
[2] = Binding affinity to 5'-GCCCCGGG-3' DNA hairpin assessed as change in fluorescence intensity at 1 uM after 45 mins by fluorescence quenching analysis relative to control
[3] = Binding affinity to 5'-GGGGGCCG-3' DNA hairpin assessed as change in fluorescence intensity at 1 uM after 45 mins by fluorescence quenching analysis relative to control
[4] = Binding affinity to 5'-GGCCCGCC-3' DNA hairpin assessed as change in fluorescence intensity at 1 uM after 45 mins by fluorescence quenching analysis relative to control
[5] = Binding affinity to 5'-CGGCCCCG-3' DNA hairpin assessed as change in fluorescence intensity at 1 uM after 45 mins by fluorescence quenching analysis relative to control
[6] = Binding affinity to 5'-GGCCCGCG-3' DNA hairpin assessed as change in fluorescence intensity at 1 uM after 45 mins by fluorescence quenching analysis relative to control
[7] = Binding affinity to 5'-CGGGGGGG-3' DNA hairpin assessed as change in fluorescence intensity at 1 uM after 45 mins by fluorescence quenching analysis relative to control
[8] = Binding affinity to 5'-GGGGGCGG-3' DNA hairpin assessed as change in fluorescence intensity at 1 uM after 45 mins by fluorescence quenching analysis relative to control
[9] = Binding affinity to 5'-CCCGGGGG-3' DNA hairpin assessed as change in fluorescence intensity at 1 uM after 45 mins by fluorescence quenching analysis relative to control
[10] = Binding affinity to 5'-CGGCCCGC-3' DNA hairpin assessed as change in fluorescence intensity at 1 uM after 45 mins by fluorescence quenching analysis relative to control
[11] = Binding affinity to 5'-CCCGGGCC-3' DNA hairpin assessed as change in fluorescence intensity at 1 uM after 45 mins by fluorescence quenching analysis relative to control
[12] = Binding affinity to 5'-GCGGGCCG-3' DNA hairpin assessed as change in fluorescence intensity at 1 uM after 45 mins by fluorescence quenching analysis relative to control
[13] = Binding affinity to 5'-CGGGCCCG-3' DNA hairpin assessed as change in fluorescence intensity at 1 uM after 45 mins by fluorescence quenching analysis relative to control
[14] = Binding affinity to 5'-GCGCGGGG-3' DNA hairpin assessed as change in fluorescence intensity at 1 uM after 45 mins by fluorescence quenching analysis relative to control
[15] = Binding affinity to 5'-GCCGGGGC-3' DNA hairpin assessed as change in fluorescence intensity at 1 uM after 45 mins by fluorescence quenching analysis relative to control
[16] = Binding affinity to 5'-GGGGCGGC-3' DNA hairpin assessed as change in fluorescence intensity at 1 uM after 45 mins by fluorescence quenching analysis relative to control
[17] = Binding affinity to 5'-CGCGGCCC-3' DNA hairpin assessed as change in fluorescence intensity at 1 uM after 45 mins by fluorescence quenching analysis relative to control
[18] = Binding affinity to 5'-CCCGGCGC-3' DNA hairpin assessed as change in fluorescence intensity at 1 uM after 45 mins by fluorescence quenching analysis relative to control
[19] = Binding affinity to 5'-CCGGGGGG-3' DNA hairpin assessed as change in fluorescence intensity at 1 uM after 45 mins by fluorescence quenching analysis relative to control
[20] = Binding affinity to 5'-CGGGCGGC-3' DNA hairpin assessed as change in fluorescence intensity at 1 uM after 45 mins by fluorescence quenching analysis relative to control
[21] = Binding affinity to 5'-GCCGGCCG-3' DNA hairpin assessed as change in fluorescence intensity at 1 uM after 45 mins by fluorescence quenching analysis relative to control
[22] = Binding affinity to 5'-GGCCGGGC-3' DNA hairpin assessed as change in fluorescence intensity at 1 uM after 45 mins by fluorescence quenching analysis relative to control
[23] = Binding affinity to 5'-CGGCGCGC-3' DNA hairpin assessed as change in fluorescence intensity at 1 uM after 45 mins by fluorescence quenching analysis relative to control
[24] = Binding affinity to 5'-GGGGGGCG-3' DNA hairpin assessed as change in fluorescence intensity at 1 uM after 45 mins by fluorescence quenching analysis relative to control
[25] = Binding affinity to 5'-CCCGCCCC-3' DNA hairpin assessed as change in fluorescence intensity at 1 uM after 45 mins by fluorescence quenching analysis relative to control
[26] = Binding affinity to 5'-CGGGCCGG-3' DNA hairpin assessed as change in fluorescence intensity at 1 uM after 45 mins by fluorescence quenching analysis relative to control
[27] = Binding affinity to 5'-GCCGCCCC-3' DNA hairpin assessed as change in fluorescence intensity at 1 uM after 45 mins by fluorescence quenching analysis relative to control
[28] = Binding affinity to 5'-CCGCGGGG-3' DNA hairpin assessed as change in fluorescence intensity at 1 uM after 45 mins by fluorescence quenching analysis relative to control
[29] = Binding affinity to 5'-CCGGCGGG-3' DNA hairpin assessed as change in fluorescence intensity at 1 uM after 45 mins by fluorescence quenching analysis relative to control
[30] = Binding affinity to 5'-CGCCGCGG-3' DNA hairpin assessed as change in fluorescence intensity at 1 uM after 45 mins by fluorescence quenching analysis relative to control
[31] = Binding affinity to 5'-CCCGCCGG-3' DNA hairpin assessed as change in fluorescence intensity at 1 uM after 45 mins by fluorescence quenching analysis relative to control
[32] = Binding affinity to 5'-CCGCCGCC-3' DNA hairpin assessed as change in fluorescence intensity at 1 uM after 45 mins by fluorescence quenching analysis relative to control
[33] = Binding affinity to 5'-CGCGCGCC-3' DNA hairpin assessed as change in fluorescence intensity at 1 uM after 45 mins by fluorescence quenching analysis relative to control
[34] = Binding affinity to 5'-GGCGGGCC-3' DNA hairpin assessed as change in fluorescence intensity at 1 uM after 45 mins by fluorescence quenching analysis relative to control
[35] = Binding affinity to 5'-CCCCGCGG-3' DNA hairpin assessed as change in fluorescence intensity at 1 uM after 45 mins by fluorescence quenching analysis relative to control
[36] = Binding affinity to 5'-GCCGCGCG-3' DNA hairpin assessed as change in fluorescence intensity at 1 uM after 45 mins by fluorescence quenching analysis relative to control

Q: Which results are given for NCC1O[C@H](O[C@H]2[C@@H](O)[C@H](O[C@@H]3[C@@H](O)[C@H](N)C[C@H](N)[C@H]3O[C@H]3O[C@H](CN)[C@@H](O)[C@H](O)[C@H]3N)O[C@@H]2CSCCNC(=O)CCSCC(=O)Nc2ccc(-c3c4ccc(=O)cc-4oc4cc(O)ccc34)c(C(=O)O)c2)[C@H](N)[C@@H](O)[C@@H]1O (stereo partly specified)?
A: Activity [1]: 15%; Activity [2]: 28.8%; Activity [3]: 29.9%; Activity [4]: 31.2%; Activity [5]: 33.2%; Activity [6]: 34.3%; Activity [7]: 35.9%; Activity [8]: 38.3%; Activity [9]: 38.7%; Activity [10]: 39.9%; Activity [11]: 40.2%; Activity [12]: 40.9%; Activity [13]: 41.3%; Activity [14]: 43.1%; Activity [15]: 43.2%; Activity [16]: 44.6%; Activity [17]: 44.6%; Activity [18]: 44.8%; Activity [19]: 45.1%; Activity [20]: 45.1%; Activity [21]: 45.3%; Activity [22]: 45.6%; Activity [23]: 46.2%; Activity [24]: 46.3%; Activity [25]: 46.7%; Activity [26]: 48.2%; Activity [27]: 48.5%; Activity [28]: 48.6%; Activity [29]: 49.1%; Activity [30]: 49.8%; Activity [31]: 50.9%; Activity [32]: 52.2%; Activity [33]: 52.2%; Activity [34]: 53.2%; Activity [35]: 53.3%; Activity [36]: 58.2%
